Assay results taken from patent US9428477B2, “Trans-2-decenoic acid derivative and drug containing same” (NIPPON ZOKI PHARMACEUTICAL CO., LTD., priority 2012, dated 2016).

Experiments:
[1] = tested on: transcription factor CREB; assay: Activation (phosphorylation) of CREB under mild stress loads, chronic mild stress-induced depression model mice; assay type: in vivo; conditions: normal control 0.95±0.09, stress-loaded control 0.50±0.07
[2] = tested on: chronic mild stress-induced depression model mice; assay: Light-dark test, suppressive effects of anxiety symptoms accompanying mild stress loads; assay type: in vivo; conditions: normal control 110.74±5.29, stress-loaded control 74.72±4.09
Protocol: (§1) Female ddY mice of seven weeks age (n=8 to 12) were subjected to the following procedures: (A) The mice were subjected to forced swimming for 15 minutes, and then to normal breeding for two days. (B) The mice were subjected to breeding in an inclined cage for two days, and then to normal breeding for one day. (C) The mice were subjected to breeding for one day in a cage of which floor mat was made wet and then to normal breeding for one day. (D) The mice were subjected to breeding for one day with a cage rotating at a rate of 180 rotations/minute, and then to normal breeding for one day. Further, after one cycle of (A) to (D) was carried out, (B) to (D) were repeated for two cycles. […]
The compounds of the present invention were administered as a test drug to the chronic mild stress-induced depression model mice of Test Example 3(1) mentioned above, and the model mice were then subjected to light-dark test to evaluate suppressive effects of anxiety symptoms. Specifically, a wooden rectangular apparatus composed of a light chamber and a dark chamber having a height of 50 cm, a length of 50 cm, a width of 25 cm was used, a mouse was placed in a dark chamber and allowed to freely search, and then the number of times invading into a light chamber, and the time staying in the light chamber were recorded for 5 minutes. […]

[3] = tested on: chronic mild stress-induced depression model mice; assay: Tail suspension test, suppressive effects of depression symptoms accompanying mild stress loads; assay type: in vivo; conditions: normal control 73.16±9.20, stress-loaded control 157.01±11.97
Protocol: as §1, with “cycles. As such, stress was applied over three weeks in total to prepare chronic mild stress-induced depression model mice.” for “cycles.”
The compounds of the present invention were administered as a test drug to the chronic mild stress-induced depression model mice of Test Example 3(1) mentioned above, and the model mice were then subjected to tail suspension test to evaluate suppressive effects of depression symptoms. […] The observations were made for 6 minutes, and the length of the immobility time, serving as an index of depression symptoms, was measured. […]

MAP kinase (ERK1/2) = assay: Activation (phosphorylation) of MAP kinase under mild stress loads, hippocampus of chronic mild stress-induced depression model mice; assay type: in vivo; conditions: normal control 1.26±0.11, stress-loaded control 0.56±0.04
Protocol: As to the compounds of the present invention, the activation level of the MAP kinase (ERK1/2) was measured using chronic mild stress-induced depression model mice in the following manner. • (1) Preparation of Chronic Mild Stress-Induced Depression Model Mice and Administration of Test Drug
as §1, with “cycles. As such, stress was applied over three weeks in total to prepare chronic mild stress-induced depression model mice.” for “cycles.”
Each of the MAP kinase (MAPK) and the phosphorylated MAP kinase (pMAPK) was subjected to immunoblot analysis, and 2 μg or 5 μg each of tissue-extracted proteins was subjected to electrophoresis. […] The staining intensity of each band was quantified, and a ratio of pMAPK to MAPK was obtained (n=4 to 7). […]

[4] = tested on: rats with paclitaxel-induced peripheral nerve disorder; assay: Rat peripheral nerve disorder induced by paclitaxel, von Frey test; assay type: in vivo; conditions: ip, test drug intraperitoneally, single dose, higher of values 1 and 5 hours after administration, mechanical stimulus of right hind limb, normal threshold 15, read-out: Recovery Rate of 50% Reaction Threshold Value
Protocol: The effects of the compounds of the present invention were evaluated for a peripheral nerve disorder which is a side effect induced by the administration of an anti-cancer agent paclitaxel, such as hyperesthesia including allodynia induced by mechanical stimuli, which is a severe pain induced by such tactile stimuli which usually cause no pains. The compound of the present invention was intraperitoneally administered to rats as a test drug to conduct a von Frey test.
Male SD rats of six weeks age (six rats per group) were used as experimental animals, and paclitaxel (2 mg/kg) was intraperitoneally administered every other day for four times in total to prepare rats with paclitaxel-induced peripheral nerve disorder. During the period of 18 to 25 days or during the period of 20 to 27 days after the initiation of paclitaxel administration, the test drug was intraperitoneally administered in a single dose of […], and the following von Frey test was conducted.
The rats of the above (1) were placed in a transparent acrylic cage with a wire-meshed floor and habituated for about three minutes, and the 50% reaction threshold values to the mechanical stimulus of right hind limb were measured before administration of the test drug and after 1 and 5 hours from the initiation of the administration.
The measurement was conducted using von Frey filaments (manufactured by North Coast Medical Inc.) in accordance with the methods of Chaplan, et al. (Journal of Neuroscience Methods, 53(1), 55-63, 1994) and Dixon, et al. (Annual Review of Pharmacology and Toxicology, 20, 441-462, 1980). […] The case where the rat escaped at the instance of removing the filament was also called positive. When the positive reaction was found, stimulus was applied similarly with a filament of one rank weaker, and in the absence of the reaction, stimulus was similarly applied with a filament of one rank stronger, and a point where the reaction changed from negative to positive or from positive to negative was called the first two reactions. Subsequently, stimuli were applied for continuously four times by the same up-down method. A 50% reaction threshold value to the mechanical stimulus was measured using the reaction to the six stimuli in total and then (mean value)±(standard error) for each group was calculated. Incidentally, when stimulus reached to a load of 15.0 g without positive reaction, or when positive reaction continued to a load of 0.4 g, 15.0 g or 0.25 g was adopted as each of 50% reaction threshold values. With regard to the higher 50% reaction threshold value between the 50% threshold values after 1 hour and 5 hours from administration of a test drug, a recovery rate (%) of the 50% reaction threshold value was calculated by the following expression in which 15 was taken as a normal threshold value.
Recovery rate (%) of 50% reaction threshold value=[(50% reaction threshold value after 1 hour or 5 hours from administration of test drug)−(50% reaction threshold value before administration of test drug)]/[(Normal threshold value)−(50% reaction threshold value before administration of test drug)]×100

[5] = 500 μg/kg orally once every day for three weeks
[6] = 1,000 μg/kg orally once every day for three weeks

Row | melting point [°C] | Structure (SMILES) | ratio of pCREB to CREB [1, 5] | staying time in the light chamber ([2]; 5 minutes, 500 μg/kg) [s] | immobility time ([3]; 6 minutes, 500 μg/kg) [s] | ratio of pMAPK to MAPK (MAP kinase (ERK1/2); [5]) | change in vivo at 0.3 mg/kg [4] [%] | ratio of pCREB to CREB [1, 6] | staying time in the light chamber ([2]; 5 minutes, 1,000 μg/kg) [s] | immobility time ([3]; 6 minutes, 1,000 μg/kg) [s] | ratio of pMAPK to MAPK (MAP kinase (ERK1/2); [6])
1 |  | CCCCCCC/C=C/C(=O)N1CCC(N(C)C)CC1 [Compound 12, 1-((E)-2-decenoyl)-4-dimethylaminopiperidine] | 1.08±0.14 | 108.70 ± 12.06 | 69.26 ± 16.41 | 1.09±0.04 | 49.7 |  |  |  | 
2 | 88 to 89 | CCCCCCC/C=C/C(=O)N1CCC(C(=O)O)CC1 [Compound 10, 1-((E)-2-Decenoyl)piperidine-4-carboxylic acid] |  |  |  |  | 44.6 | 0.94±0.10 | 107.05 ± 8.29 | 96.03 ± 25.24 | 1.00±0.04
